What is called pEC50 is the negative decadic logarithm of the EC50, by convention in mol/L.

Data set [1] is described as follows: in vitro. The following applies: African green monkey, CC50.
The test system of data set [2] is BDBV mucin-domain-deleted glycoprotein pseudotyped VSV. The data set is described as follows: microbe, parasite or virus in culture. The following applies: Vesicular stomatitis virus, Vero, read-out: EC50 BDBV. It is filed as cell-based, Bundibugyo ebolavirus.
The subject of data set [3] is EBOV mucin-domain-deleted glycoprotein pseudotyped VSV. The data set is described as follows: microbe, parasite or virus in culture. It is filed as cell-based, Zaire ebolavirus. The following applies: Zaire ebolavirus, Vero, read-out: EC50 EBOV.

pEC50: −log10 of the molar value.

`CC12CC3CC(C(=O)NC4CCNCC4(F)F)(C1)CC(c1ccccc1)(C3)C2` (stereo not drawn) [Example A109] returned a CC50 in data set [1] of 37 µM. In addition, the figures for the pEC50 in data set [2] and in data set [3] were 6.03 and 7.10, respectively.
With `C[C@H]1C[C@@H](NC(=O)C23CC4CC(C)(C2)CC(c2ccccc2)(C4)C3)CCN1` (stereo partly drawn) [Example A110], the CC50 in data set [1] amounted to 17.5 µM. In addition, the pEC50 in data set [2] was 6.72; in data set [3] it was 7.68.
Compound `CC12CC3CC(C(=O)NC4CCNCC4(C)C)(C1)CC(c1ccccc1)(C3)C2` (stereo not drawn) [Example A111] displayed a CC50 in data set [1] of 10.7 µM. Also, the results for the pEC50 in data set [2] and in data set [3] were 6.82 and 7.74, respectively.
Take `CC1CNCCC1NC(=O)C12CC3CC(C)(C1)CC(c1ccccc1)(C3)C2` (stereo not drawn) [Example A112]: the CC50 in data set [1] came out at 7.2 µM. For the same compound, the pEC50 in data set [2] was 6.59; in data set [3], 7.43.
As for `COC(=O)C12CC3CC(C(=O)N[C@H]4CC[C@H](N)CC4)(C1)CC(c1ccccc1)(C3)C2` (stereo partly drawn) [Example A115], in data set [1], the CC50 amounted to 59 µM. Further, the results for the pEC50 in data set [2] and in data set [3] were below 6.00 and 6.01, respectively.
Regarding `CC12CC3CC(C(=O)Nc4ccncc4)(C1)CC(c1ccccc1)(C3)C2` (stereo not drawn) [Example A201, 3-methyl-5-phenyl-N-(pyridin-4-yl)adamantane-1-carboxamide], the CC50 in data set [1] amounted to 16.4 µM. For the same compound, the pEC50 is below 6.00 in data set [2] and 5.96 in data set [3].
With `CC12CC3CC(C(=O)NCc4ncc[nH]4)(C1)CC(c1ccccc1)(C3)C2` (stereo not drawn) [Example A202, N-(1H-imidazol-2-ylmethyl)-3-methyl-5-phenyladamantane-1-carboxamide], the CC50 in data set [1] is 41.5 µM. For the same compound, the results for the pEC50 in data set [2] and in data set [3] were 6.02 and 6.23, respectively.
Regarding `CC12CC3CC(C(=O)Nc4ccnc(N)c4)(C1)CC(c1ccccc1)(C3)C2` (stereo not drawn) [Example A203, N-(2-aminopyridin-4-yl)-3-methyl-5-phenyladamantane-1-carboxamide], the CC50 in data set [1] stood at 3.9 µM. Besides, the results for the pEC50 in data set [2] and in data set [3] were 5.99 and 6.04, respectively.
`[O-][S+](NC1CCNCC1)C12CC3CC(CC(C3)C1)C2` (stereo not drawn) [Example A204, N-(piperidin-4-yl)adamantane-1-sulfinamide] registered a CC50 in data set [1] above 100 µM. In addition, the pEC50 in data set [2] and in data set [3] was below 6.00 each time.
Consider `O=S(=O)(NC1CCNCC1)C12CC3CC(CC(C3)C1)C2` [Example A205, N-(piperidin-4-yl)adamantane-1-sulfonamide], for which the CC50 in data set [1] worked out at 37 µM. In addition, the pEC50 in data set [2] and in data set [3] was below 6.00 in each case.
For the compound `CN1CCN(CC23CC4CC(C2)CC(c2ccccc2)(C4)C3)CC1` [Example C1], the CC50 in data set [1] came out at 5.8 µM. For the same compound, the pEC50 in data set [2] is 6.69; in data set [3], 6.74.
In data set [1], `CC12CC3CC(CNC4CCNCC4)(C1)CC(c1ccccc1)(C3)C2` (stereo not drawn) [Example C3, N-((3-methyl-5-phenyladamantan-1-yl)methyl)piperidin-4-amine] came in with a CC50 of 1.8 µM. The pEC50 in data set [2] was 6.68; in data set [3], 6.63.
For the compound `CC1CCN(CCCOc2ccc(C34CC5CC(CC(C5)C3)C4)cc2)CC1` [Example C4, 1-(3-(4-(adamantan-1-yl)phenoxy)propyl)-4-methylpiperidine], the CC50 in data set [1] amounted to 7.2 µM. In addition, the pEC50 was 6.40 in data set [2] and 6.85 in data set [3].
Taken in the same sequence, the figures for `c1cc(C23CC4CC(CC(C4)C2)C3)ccc1OCCCN1CCCCC1` [Example C5, 1-(3-(4-(adamantan-1-yl)phenoxy)propyl)piperidine] were 14.3 µM, 6.26 and 6.85.
Compound `CN1CCN(CCCOc2ccc(C34CC5CC(CC(C5)C3)C4)cc2)CC1` [Example C6, 1-(3-(4-(adamantan-1-yl)phenoxy)propyl)-4-methylpiperazine] had a CC50 in data set [1] of 3.8 µM. The pEC50 in data set [2] is 6.19; in data set [3], 6.92.
The like results for `CC1CCN(CC(O)CCOc2ccc(C34CC5CC(CC(C5)C3)C4)cc2)CC1` (stereo not drawn) [Example C7, 4-(4-(adamantan-1-yl)phenoxy)-1-(4-methylpiperidin-1-yl)butan-2-ol] were, in that order, 4.1 µM, 6.11 and 6.33.
Consider `OC(CCOc1ccc(C23CC4CC(CC(C4)C2)C3)cc1)CN1CCCCC1` (stereo not drawn) [Example C8, 4-(4-(adamantan-1-yl)phenoxy)-1-(piperidin-1-yl)butan-2-ol], for which the CC50 in data set [1] was determined as 1.3 µM. The pEC50 in data set [2] was 6.54; in data set [3] it was 6.85.
Turning to `CN1CCN(CC(O)CCOc2ccc(C34CC5CC(CC(C5)C3)C4)cc2)CC1` (stereo not drawn) [Example C9, 4-(4-(adamantan-1-yl)phenoxy)-1-(4-methylpiperazin-1-yl)butan-2-ol], the CC50 in data set [1] is 8.3 µM. Moreover, the pEC50 in data set [2] was 6.00; in data set [3] it was 6.18.
As for `CC1CCN(C[C@H](O)COCC23CC4CC(C2)CC(c2ccccc2)(C4)C3)CC1` [Example C10, (2S)-1-(4-methylpiperidin-1-yl)-3-[(3-phenyladamantan-1-yl)methoxy]propan-2-ol], in data set [1], the CC50 turned out to be 3.6 µM. Besides, the results for the pEC50 in data set [2] and in data set [3] were 6.77 and 6.72, respectively.
Compound `CC1CCN(C[C@@H](O)COCC23CC4CC(C2)CC(c2ccccc2)(C4)C3)CC1` [Example C11, (2R)-1-(4-methylpiperidin-1-yl)-3-[(3-phenyladamantan-1-yl)methoxy]propan-2-ol] yielded a CC50 in data set [1] of 3.6 µM. Besides, the pEC50 in data set [2] is 6.96; in data set [3], 6.74.
Compound `CC1CCN(C[C@H](O)COCCC23CC4CC(C2)CC(c2ccccc2)(C4)C3)CC1` [Example C12, (2S)-1-(4-methylpiperidin-1-yl)-3-[2-(3-phenyladamantan-1-yl)ethoxy]propan-2-ol] came in with a CC50 in data set [1] of 1.2 µM. Moreover, the pEC50 in data set [2] is 6.72; in data set [3], 6.57.
In data set [1], `CC1CCN(C[C@@H](O)COCCC23CC4CC(C2)CC(c2ccccc2)(C4)C3)CC1` [Example C13, (2R)-1-(4-methylpiperidin-1-yl)-3-[2-(3-phenyladamantan-1-yl)ethoxy]propan-2-ol] came in with a CC50 of 3.6 µM. The pEC50 is 6.96 in data set [2] and 6.77 in data set [3].
For `O=C(NC1CCNCC1)c1ccc(NCC23CC4CC(C2)CC(c2ccccc2)(C4)C3)nc1` [Example C14, 6-{[(3-phenyladamantan-1-yl)methyl]amino}-N-(piperidin-4-yl)pyridine-3-carboxamide], the CC50 in data set [1] was 3.9 µM. Also, the pEC50 in data set [2] is 6.00; in data set [3], below 6.00.
In data set [1], `c1ccc(C23CC4CC(CC(CNc5ccc(CN6CCCCC6)cn5)(C4)C2)C3)cc1` [Example C15, N-[(3-phenyladamantan-1-yl)methyl]-5-(piperidin-1-ylmethyl)pyridin-2-amine] had a CC50 of 3.9 µM. Also, the negative logarithm of the EC50 (pEC50) in data set [2] is 6.01; in data set [3] it was below 6.00.
As for `NCc1ccc(NCC23CC4CC(C2)CC(c2ccccc2)(C4)C3)nc1` [Example C16, 5-(aminomethyl)-N-[(3-phenyladamantan-1-yl)methyl]pyridin-2-amine], in data set [1], the CC50 worked out at 8 µM. The pEC50 in data set [2] is 6.12; in data set [3], 6.01.

These data come from US12240857B2 (priority 2017, dated 2025).
